Source: article PMC5234776, “Study of the Antimicrobial Activity of Tilapia Piscidin 3 (TP3) and TP4 and Their Effects on Immune Functions in Hybrid Tilapia (Oreochromis spp.)” (PLoS ONE, 2017)
In brackets after ≈: the same amount, converted by molar mass. Where two headings read alike, the source gives them in different places. Peptide text beside a SMILES is read from it.

Assays:
V. vulnificus [1] = assay: microbe, parasite or virus in culture; type: cell-based, Vibrio vulnificus; conditions: for antimicrobial activity in the pH 2 solution: pH 2, in words
Experimental: (§1) To understand the effects of pH on TP3 or TP4, the reagents were dissolved in ddH2O, 1 M HCl or 1 M NaOH to obtain solutions with different pH values. For the temperature-dependent functional study, the TP3 or TP4 was added to a solution in a water bath (Basic life, model BL3002, Taiwan) and incubated for 60 minutes at different temperatures (40, 60, 80, or 100°C). To evaluate the effects of TP3 and TP4 on pepsin and trypsin function, each peptide was incubated for 10 or 30 minutes with different concentrations of pepsin or trypsin (0.1, 1, or 10 μg/ml), and we determined the MIC values after incubating these solutions with cells at 28°C for 720 minutes, according to a previously described MIC experimental protocol.

V. vulnificus [2] = type: cell-based, Vibrio vulnificus
Experimental: as §1

tilapia = assay: Toxicity of peptide alone, tilapia survival; type: in vivo, tilapia (Oreochromis spp.); conditions: abdominal cavity, no infection, seven days (S2 Fig)
Experimental: The antimicrobial activities of TP3 and TP4 peptides were analyzed in tilapia infected with lethal amounts of bacteria. Different amounts of V. vulnificus were injected into the abdominal cavities of the fish, and survival rates were recorded as cumulative percentages (S1 Fig). To determine whether TP3 and TP4 had any toxic effects on the tilapia, we injected different doses of TP3 and TP4 (0.1, 1, 10, 20, 30, 40, or 50 μg/fish) into the abdominal cavity and recorded the cumulative survival percentage of the fish (S2 Fig). We also co-treated tilapia with different doses (0.1, 1, 10, 20 μg/fish) of TP3 or TP4 combined with 2x10^4 CFU of V. vulnificus to evaluate tilapia survival following treatment. […] After 14, 21, or 28 days following the first co-treatment with TP3, the tilapia that survived in the 20 μg/fish TP3 experimental group were injected with a second dose of 2x10^4 CFU of V. vulnificus, and the survival rates were measured for another seven days. […] In the co-treatment experiments, at 14, 21, or 28 days after the first co-treatment with TP4, the surviving tilapia in the 20 μg/fish TP4 experimental group received a second injection of 2x10^4 CFU of V. vulnificus, and the survival rates were measured for another seven days.
Supplementary file pone.0169678.s002.pdf: S2 Fig Determination of tilapia survival rates seven days after injection with different concentrations of TP3 or TP4. (a) The survival rates of tilapia injected with TP3 at a dose of 0.1 μg/fish, 1 μg/fish, or 10 μg/fish. (b) The percentage of tilapia surviving after injection with TP4 at 0.1 μg/fish, 1 μg/fish, or 10 μg/fish. (c) The percentage of tilapia surviving after injection with TP3 at 20 μg/fish, 30 μg/fish, 40 μg/fish, or 50 μg/fish. (d) The percentage of tilapia surviving after injection with TP4 at 20 μg/fish, 30 μg/fish, 40 μg/fish, or 50 μg/fish. The control group (control) was injected with PBS alone. (PDF) Click here for additional data file.

in vivo = assay: in vivo; set-up: species or system tilapia (Oreochromis hybrids, Tilapia spp.); conditions: iv, 0.2 mg/kg
Experimental: The peptide half-life of TP3 and TP4 were investigated in male tilapia (Oreochromis hybrids, Tilapia spp., with a mean body length of 32.33±1.5 cm and a mean body weight of 1117±78.2 g) after intravenous administration of a single dose of 0.2 mg/kg of peptide. The TP3 and TP4 concentrations in serum samples were determined at 10, 30, 60, 120, 180, 240, 300, and 360 minutes for TP3 and at 10, 60, 120, 180, 240, 300, and 360 minutes after dosing for TP4. At each sample collection time point, we anesthetized three fish and collected their blood. The blood was centrifuged to obtain fish serum, which was assessed by liquid chromatography-mass spectrometry/mass spectrometry (LC-MS/MS) at Mission Biotech (Taipei, Taiwan).

## CC[C@H](C)[C@H](NC(=O)[C@H](C)NC(=O)[C@H](CCCCN)NC(=O)CNC(=O)[C@H](C)NC(=O)[C@H](CO)NC(=O)[C@H](Cc1ccccc1)NC(=O)[C@H](CC(C)C)NC(=O)CNC(=O)CNC(=O)[C@@H](NC(=O)[C@@H](NC(=O)[C@H](Cc1c[nH]cn1)NC(=O)[C@H](Cc1c[nH]cn1)NC(=O)[C@@H](NC(=O)[C@@H](N)Cc1ccccc1)[C@@H](C)CC)[C@@H](C)CC)[C@@H](C)CC)C(=O)N[C@@H](Cc1c[nH]cn1)C(=O)N[C@@H](CCCNC(=N)N)C(=O)N[C@@H](CC(C)C)C(=O)N[C@H](C(=O)N[C@@H](CCCNC(=N)N)C(=O)N[C@@H](CCCNC(=N)N)C(=O)N[C@@H](CCCNC(=N)N)C(=O)N[C@@H](CCCNC(=N)N)C(=O)N[C@@H](CCCNC(=N)N)C(=O)O)[C@@H](C)CC [TP4, tilapia piscidin 4] (H-FIHHIIGGLFSAGKAIHRLIRRRRR-OH)
V. vulnificus [1]
  antimicrobial activity in the pH 2 solution: Neither the antibiotics nor TP3 and TP4 showed any antimicrobial activity
V. vulnificus [1]; pH 7
  MBC: 7.8 µg/mL (≈ 2.62 µM)
  MIC: 7.8 µg/mL (≈ 2.62 µM)
V. vulnificus [2]; pepsin 0.1 μg/ml, 30 minutes
  decrease of antimicrobial activity: eight-fold
V. vulnificus [2]; pepsin 1 μg/ml, 10 minutes
  decrease of antimicrobial activity: two-fold
V. vulnificus [2]; trypsin 1 μg/ml, 10 minutes
  decrease of antimicrobial activity: two-fold
V. vulnificus [2]; trypsin 1 μg/ml, 30 minutes
  decrease of antimicrobial activity: four-fold
V. vulnificus [2]; trypsin 10 μg/ml, 10 minutes
  decrease of antimicrobial activity: eight-fold

## CC[C@H](C)[C@H](NC(=O)[C@H](CC(C)C)NC(=O)[C@H](CO)NC(=O)[C@H](Cc1c[nH]cn1)NC(=O)[C@@H](NC(=O)[C@H](Cc1c[nH]cn1)NC(=O)[C@H](CCCCN)NC(=O)CNC(=O)[C@@H](NC(=O)[C@H](CO)NC(=O)[C@H](Cc1ccccc1)NC(=O)[C@H](CC(C)C)NC(=O)CNC(=O)CNC(=O)[C@@H](NC(=O)[C@@H](NC(=O)[C@H](Cc1c[nH]cn1)NC(=O)[C@H](Cc1c[nH]cn1)NC(=O)[C@@H](NC(=O)[C@@H](N)Cc1ccccc1)[C@@H](C)CC)[C@@H](C)CC)[C@@H](C)CC)C(C)C)[C@@H](C)CC)C(=O)N[C@@H](Cc1c[nH]cn1)C(=O)NCC(=O)N[C@@H](Cc1c[nH]cn1)C(=O)O [TP3, tilapia piscidin 3] (H-FIHHIIGGLFSVGKHIHSLIHGH-OH)
tilapia; 20 μg/fish
  percent survival after injection of peptide only: 86.7%
tilapia; 30 μg/fish
  percent survival after injection of peptide only: 73.3%
tilapia; 40 μg/fish
  percent survival after injection of peptide only: 66.7%
tilapia; 50 μg/fish
  percent survival after injection of peptide only: 56.7%
In vivo
  half-life of the injected peptide in tilapia serum: 120 to 180 min
V. vulnificus [1]
  antimicrobial activity in the pH 2 solution: Neither the antibiotics nor TP3 and TP4 showed any antimicrobial activity
V. vulnificus [1]; pH 7
  MBC: 62.5 µg/mL (≈ 24.4 µM)
